Results published in PMC8803428, “Pharmacokinetics of Ginsenoside Rb1, Rg3, Rk1, Rg5, F2, and Compound K from Red Ginseng Extract in Healthy Korean Volunteers” (Evidence-based Complementary and Alternative Medicine : eCAM, 2022).
Where two headings read alike, the source gives them in different places.

What was measured:
[1] = Pharmacokinetics of ginsenosides in plasma after a single oral dose of RG or BRG capsules in healthy Korean men (LC-MS/MS); type: in vivo, human; settings: for AUC(0-t): read-out: AUC(0–t)
Excerpt: This study was designed as a randomized, open-label, single-dose, crossover study with washout every 1 week to evaluate the pharmacokinetics and safety of ginsenosides. Subjects were randomly assigned to either the RG or BRG group during the first period of the study (Figure 2). After 1 week of the washout period, other products that were not received in the first period were provided. All enrolled subjects were hospitalized at Bestian Clinical Trial Center on the day before taking RG or BRG. Subjects were provided regular meals, and additional food intake was restricted after the meal. The next day, the subjects who had maintained the fasting state for 10 h took the capsules corresponding to 5 g of RG and BRG orally. Water was restricted for 1 h before and after intake, and food intake was restricted for 4 h after administration. After 4 h, all subjects received a standardized meal. In addition, lying down or sleeping was prohibited for 8 h after oral administration. Blood samples (5 mL) were collected before dosing and at each time point (0, 0.5, 1, 2, 4, 6, 8, 10, 12, and 24 h) after dosing. All blood samples were collected in heparin-treated tubes. The blood samples were promptly centrifuged at 3,000 rpm for 10 min at 4°C, and the plasma samples obtained were stored in a deep freezer at −70 ± 10°C until assay.
All analyses were performed using an Agilent 1200 series HPLC system (Agilent) with a Luna Phenyl-Hexyl column (2.0 × 150 mm, 5 μm; Phenomenex, CA, USA). The mobile phase comprised water (solvent A) and acetonitrile (solvent B) containing 0.1% formic acid. The flow rate of the mobile phase was 0.25–0.35 mL/min. The initial condition of 70% solvent A was set to 5% solvent A over 15 min. The content of ginsenosides in human plasma was measured using an API 5500 mass spectrometer (AB Sciex, Foster City, CA, USA) capable of multiple reaction monitoring (MRM). The parent-daughter ion pairs monitored were 845.5 ⟶ 799.6 for Rg1, 1153.6 ⟶ 1107.5 for Rb1, 829.4 ⟶ 783.5 for Rg3, and F2, 811.4 ⟶ 161.0 for Rg5 and Rk1, 667.4 ⟶ 161.0 for CK, and 825.4 ⟶ 779.3 for digoxin as an IS in the negative ion mode. Nitrogen gas was used in the nebulizer and the collision cell. The ion spray voltage was set to 5500 V.
Standard plasma samples were prepared such that each ginsenoside was in the concentration range of 0.5–100 ng/mL; 10 μL of a standard mixture of six kinds of ginsenosides (Rg1, Rb1, Rg5 + Rk1, F2, and CK) was added to 90 μL of blank human plasma. Rg3 was prepared in the concentration range of 0.2–40 ng/mL. Standard plasma samples (100 μL) were added to 200 μL of methanol containing 50 ng/mL digoxin, an IS. These were mixed for 1 min and then centrifuged at 12,000 rpm for 5 min at 4°C. Then, 100 μL of the supernatant was transferred to an LC vial, and 10 μL was injected into the LC-MS/MS system. Plasma samples stored at −70°C were thawed at room temperature. Samples for LC-MS/MS analysis were pretreated in the same manner as standard plasma samples.
Plasma concentrations of seven ginsenosides were calculated from calibration curves by calculating the ratio of the peak area of the test substance to the peak area of the IS. The following pharmacokinetic parameters were measured using Phoenix WinNonlin 6.3 (Pharsight Co, CA, USA): time to reach maximum observed plasma drug concentration (Tmax), maximum observed plasma drug concentration (Cmax), area under the plasma drug concentration-time curve from 0 h to the final measured time (AUC(0–t)), area under the plasma drug concentration–time curve from 0 h to infinity (AUC(0–∞)), and terminal elimination half-life (t1/2).

[2] = set-up: method as in earlier work; settings: after oral Korean Red ginseng extract, ref 25 (Kim et al.); cited from earlier work
[3] = Stability of the ginsenosides in human plasma (QC samples, LC-MS/MS method validation); type: in vitro ADME
Experimental: The LC-MS/MS method was validated to determine selectivity, lower limits of quantification (LLOQ), accuracy, precision, recovery, matrix effect, and stability, according to the guideline for validating the bioanalytical method. The selectivity of the method was evaluated by comparison of blank plasma from six different men to the corresponding spiked plasma sample at the level of LLOQ to investigate the potential interferences at the LC chromatographic conditions for ginsenoside analytes and IS. The signal-to-noise ratio (S/N) of the LLOQ sample was at least five times the response compared to the blank samples. Each calibration curve was constructed by plotting the peak area ratio (y) of the analyte to IS against the spiked concentrations (x) of each analyte. Linearity was assessed by weighted (1/x^2) least squares regression analysis. The LLOQ was defined as the lowest concentration on the calibration curve with an S/N ratio of 10, where the precision and accuracy bias were within ±20% by five replicate analyses. The intra- and interday precision and accuracy assessments were performed at four concentrations with five replicates on the same day and three consecutive days, respectively. The acceptance criterion recommended by the guideline of precision and the accuracy was ±15% of the nominal concentration. The recovery of the seven ginsenosides was determined at three QC levels with three replicates by comparing the peak areas of plasma extracts spiked with analytes before extraction with those of the postextraction spiked samples at the same concentration. The matrix effects were investigated by comparing the peak areas of the analytes dissolved in the pretreated blank plasma with the corresponding concentrations prepared in the reconstitution solution with three replicates. The stability of the analytes in human plasma was assessed by analyzing five replicates of plasma samples at low, medium, and high QC levels under four different conditions. Short-term stability was evaluated after the exposure of QC samples to room temperature for 19 h before processing and analysis. The freeze and thaw stability was tested after three repeated cycles of thawing at room temperature and freezing at approximately −70°C. The long-term stability was assessed after storage at approximately −70°C for 50 days. The post-preparative stability was examined after the exposure of processed samples at ambient temperature (stored in an HPLC autosampler) for 34 h.

For `CC(C)=CCC[C@](C)(O[C@@H]1O[C@H](CO[C@@H]2O[C@H](CO)[C@@H](O)[C@H](O)[C@H]2O)[C@@H](O)[C@H](O)[C@H]1O)[C@H]1CC[C@]2(C)[C@@H]1[C@H](O)C[C@@H]1[C@@]3(C)CC[C@H](O[C@@H]4O[C@H](CO)[C@@H](O)[C@H](O)[C@H]4O[C@@H]4O[C@H](CO)[C@@H](O)[C@H](O)[C@H]4O)C(C)(C)[C@@H]3CC[C@]12C` [Rb1, ginsenoside Rb1], the “detection in plasma at the initial time point (0 h) of the second treatment period” value ([1]; after 1 week washout) was “did not detect”, the Cmax ([1]; male, human, in vivo, po, C max) was 4.04 ± 1.71 ng/mL and the half-life ([1]; male, human, plasma, oral, 5 g, range over RG and BRG groups, read-out: t1/2) was 38 to 46 h. For the same molecule, the AUC(0-t) ([1]; male, human, plasma, po, 5 g, plasma, after single oral 5 g BRG, n = 13, mean ± SD) was 56.9 ± 19.6 ng·h/mL, the AUC(0-inf) ([1]; male, human, plasma, po, 5 g, plasma, after single oral 5 g BRG, n = 13, mean ± SD, read-out: AUC(0–∞)) was 182 ± 94.4 ng·h/mL and the Cmax ([1]; male, human, plasma, po, 5 g, plasma, after single oral 5 g BRG, n = 13, mean ± SD, read-out: C max) was 3.19 ± 1.13 ng/mL. The half-life ([1]; male, human, plasma, po, 5 g, plasma, after single oral 5 g BRG, n = 13, mean ± SD, read-out: T 1/2 (converted)) was 38.1 ± 13.5 h, the Tmax ([1]; male, human, plasma, po, 5 g, plasma, after single oral 5 g BRG, n = 13, mean ± SD, read-out: T max) was 6.92 ± 1.55 h and the AUC(0-t) ([1]; male, human, plasma, po, 5 g, plasma, after single oral 5 g RG, n = 13, mean ± SD) was 73.2 ± 29.8 ng·h/mL. The AUC(0-inf) ([1]; male, human, plasma, po, 5 g, plasma, after single oral 5 g RG, n = 13, mean ± SD, read-out: AUC(0–∞)) was 257 ± 115 ng·h/mL, the half-life ([1]; male, human, plasma, po, 5 g, plasma, after single oral 5 g RG, n = 13, mean ± SD, read-out: T 1/2 (converted)) was 45.9 ± 21.9 h and the Tmax ([1]; male, human, plasma, po, 5 g, plasma, after single oral 5 g RG, n = 13, mean ± SD, read-out: T max) was 7.23 ± 1.92 h. The Cmax [2] was 3.94 ± 1.97 ng/mL, the “Freeze-thaw stability, concentration found” value (“Freeze-thaw stability” for short) ([3]; human plasma, 3 cycles, 1.5 ng/mL) was 98.65 ± 0.66% and the “Freeze-thaw stability” value ([3]; human plasma, 3 cycles, 80 ng/mL) was 100.70 ± 2.36%. For the same molecule, the “Short-term stability, concentration found” value (from here on “Short-term stability”) ([3]; human plasma, 19 h at room temperature, 1.5 ng/mL) was 98.19 ± 1.40%, the “Short-term stability” value ([3]; human plasma, 19 h at room temperature, 80 ng/mL) was 96.93 ± 5.41% and the “Long-term stability, concentration found” value ([3]; human plasma, 50 days at -70℃, 1.5 ng/mL) was 102.01 ± 1.78%. For the same molecule, the “Long-term stability, concentration found” value ([3]; human plasma, 50 days at -70℃, 80 ng/mL) was 105.06 ± 2.73%, the “Autosampler stability, concentration found” value (“Autosampler stability” for short) ([3]; processed plasma samples, 34 h at ambient temperature, 1.5 ng/mL) was 97.98 ± 3.55% and the “Autosampler stability” value ([3]; processed plasma samples, 34 h at ambient temperature, 80 ng/mL) was 100.35 ± 5.32%.
In the case of `CC(C)=CCCC(C)(OC1OC(CO)C(O)C(O)C1O)C1CCC2(C)C1C(O)CC1C3(C)CCC(O)C(C)(C)C3CCC12C` (centres unmarked) [CK, compound K], the “detection in plasma at the initial time point (0 h) of the second treatment period” value ([1]; in vivo) is reported as “did not detect”, the “AUC(0–t) of CK, times higher than that of F2” value ([1]; male, human, in vivo) is reported as > 5.03 times and the “mean Tmax in the RG group relative to the BRG group (times lower)” value ([1]; male, human, in vivo) is reported as “approximately 1.71 times”. For the same molecule, the “AUC(0–t) in the BRG group, times higher than in the RG group” value ([1]; male, human, in vivo, po) was > 28.0 times, the “AUC(0–∞)” value ([1]; male, human, in vivo, po) was 3.72 ± 7.91 ng·h/mL and the “T 1/2” value ([1]; male, human, in vivo, po) was 1.36 ± 2.61 h. For the same molecule, the T max ([1]; male, human, in vivo, po) was 4.77 ± 3.61 h, the AUC(0-inf) ([1]; male, human, in vivo, po, AUC(0–∞)) was 457 ± 259 ng·h/mL and the half-life ([1]; male, human, in vivo, po, T 1/2) was 7.72 ± 4.66 h. The Tmax ([1]; male, human, in vivo, po, T max) was 8.15 ± 10.2 h, the Cmax [2] was 8.35 ± 1.97 ng/mL and the “half-life of CK compared with that of Rb1” value [2] was “seven times shorter”. For the same molecule, the “Freeze-thaw stability” value ([3]; human, 1.5 ng/mL) was 104.03 ± 7.57%, the “Freeze-thaw stability” value ([3]; human, 80 ng/mL) was 96.17 ± 2.51% and the “Short-term stability” value ([3]; human, 19 h, 1.5 ng/mL) was 99.90 ± 4.38%. The “Short-term stability” value ([3]; human, 19 h, 80 ng/mL) was 98.69 ± 2.03%, the “Autosampler stability” value ([3]; human, 34 h, 1.5 ng/mL) was 101.24 ± 4.59% and the “Autosampler stability” value ([3]; human, 34 h, 80 ng/mL) was 99.56 ± 1.44%. For the same molecule, the “Long-term stability, concentration found” value ([3]; human, 50 days, 1.5 ng/mL) was 103.25 ± 4.03% and the “Long-term stability, concentration found” value ([3]; human, 50 days, 80 ng/mL) was 103.02 ± 5.53%.
